Laboratory results reported in patent publication US11046716B2, “Beta-lactamase inhibitors” (priority 2015, dated 2021).

Legend:
[1] = test system: P. aeruginosa expressing the Class B carbapenemase VIM-2; assay: Broth microdilution MIC assay with meropenem, P. aeruginosa VIM-2; type: cell-based; conditions: Fixed Mero (meropenem) 4 μg/mL; P. aerug. 2775 VIM-2
Outline: (§1)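 Visual MIC readout of the test compound after 16-20 hours at 37° C, measured in the presence of a constant 4 μg/ml β-lactam. Compound concentrations spanned 16 to 0.125 μg/mL in 2-fold steps in cation-adjusted Mueller Hinton broth.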

SHV-5 = target: T1, SHV-5 (Klebsiella pneumoniae, UniProt P0A3M1); assay: β-lactamase enzyme inhibition assay, SHV-5 (cefotaxime substrate); type: biochemical
T1 construct: made in house; host or cells: E. coli BL21(DE3)
T1 sequence (P0A3M1 22-286): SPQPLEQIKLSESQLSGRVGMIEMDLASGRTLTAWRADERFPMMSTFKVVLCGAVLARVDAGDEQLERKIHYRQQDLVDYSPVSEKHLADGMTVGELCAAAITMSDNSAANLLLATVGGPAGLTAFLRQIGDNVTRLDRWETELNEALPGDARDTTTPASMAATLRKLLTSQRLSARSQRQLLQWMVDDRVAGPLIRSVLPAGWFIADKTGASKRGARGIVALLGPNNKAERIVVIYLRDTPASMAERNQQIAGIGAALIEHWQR
Outline: (§2)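 Native untagged β-lactamases were expressed in E. coli BL21(DE3), then purified by cation exchange and gel filtration. Enzyme was preincubated with inhibitor for 15 min at 37 °C before substrate was added. Imipenem (A300) served KPC-2 and cefotaxime (A260) served SHV-5. IC50 was taken from initial hydrolysis rates relative to no-inhibitor controls.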

AmpC = target: T2, AmpC (Enterobacter cloacae, UniProt P05364); assay: β-lactamase enzyme inhibition assay, p99 AmpC (nitrocefin substrate); type: biochemical
T2 construct: made in house; host or cells: E. coli BL21(DE3)
T2 sequence (P05364 21-381): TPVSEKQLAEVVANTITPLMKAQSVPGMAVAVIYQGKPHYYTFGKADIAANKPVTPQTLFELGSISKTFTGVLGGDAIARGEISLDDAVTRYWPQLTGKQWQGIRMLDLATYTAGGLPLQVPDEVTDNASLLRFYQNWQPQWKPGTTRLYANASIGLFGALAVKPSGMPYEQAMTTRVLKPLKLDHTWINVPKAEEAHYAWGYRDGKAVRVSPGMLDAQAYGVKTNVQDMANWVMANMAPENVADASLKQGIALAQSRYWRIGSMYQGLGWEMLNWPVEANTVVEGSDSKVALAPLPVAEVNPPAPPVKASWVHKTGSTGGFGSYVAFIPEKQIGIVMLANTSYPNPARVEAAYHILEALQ
Outline: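 Native untagged β-lactamases were expressed in E. coli BL21(DE3), then purified by cation exchange and gel filtration. Enzyme was preincubated with inhibitor for 15 min at 37 °C before substrate was added. IC50 was taken from initial hydrolysis rates relative to no-inhibitor controls.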

[2] = test system: K. pneumoniae expressing the class A carbapenemase KPC-2 and the class B carbapenemase VIM-4; assay: Broth microdilution MIC assay with meropenem, K. pneumoniae KPC-2 and VIM-4; type: cell-based; conditions: Fixed Mero (meropenem) 4 μg/mL; K. p. A-1797 KPC-2 VIM-4
Outline: as §1

OXA-48 = OXA-48 (UniProt Q6XEC0); assay: β-lactamase enzyme inhibition assay, Class D oxacillinase; type: biochemical; conditions: read-out: OXA-48
[3] = test system: E. cloacae expressing the Class C P99; assay: Broth microdilution MIC assay with ceftazidime, E. cloacae P99; type: cell-based; conditions: Fixed CAZ (ceftazidime) 4 μg/mL; E. cl. 144200 p99 AmpC
Outline: as §1

KPC-2 = target: T3, KPC-2 (Klebsiella pneumoniae, UniProt Q9F663); assay: β-lactamase enzyme inhibition assay, KPC-2 (imipenem substrate); type: biochemical; conditions: Class A; imipenem substrate, 300 nm; read-out: KPC-2
T3 construct: made in house; host or cells: E. coli BL21(DE3)
T3 sequence (Q9F663 25-293, looked up): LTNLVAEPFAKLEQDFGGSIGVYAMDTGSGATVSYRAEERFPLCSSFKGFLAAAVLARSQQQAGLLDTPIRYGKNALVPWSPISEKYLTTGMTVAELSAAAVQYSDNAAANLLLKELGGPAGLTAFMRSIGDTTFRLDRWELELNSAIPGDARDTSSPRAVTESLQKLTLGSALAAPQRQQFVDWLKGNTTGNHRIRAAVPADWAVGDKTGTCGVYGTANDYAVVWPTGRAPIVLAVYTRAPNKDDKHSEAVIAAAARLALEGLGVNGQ
Outline: as §2

[4] = test system: K. pneumoniae expressing the Class A carbapenemase KPC-2; assay: Broth microdilution MIC assay with meropenem, K. pneumoniae KPC-2; type: cell-based; conditions: Fixed Mero (meropenem) 4 μg/mL; K. p. 156319 KPC-3
Outline: as §1

[5] = test system: K. pneumoniae producing the Class D carbapenemase OXA-48; assay: Broth microdilution MIC assay with meropenem, K. pneumoniae OXA-48; type: cell-based; conditions: Fixed Mero (meropenem) 4 μg/mL; K. p. 11978 OXA-48
Outline: as §1

VIM-2 = target: T4, VIM-2 (Escherichia coli, UniProt Q5U7L7); assay: β-lactamase enzyme inhibition assay, VIM-2 (nitrocefin substrate); type: biochemical; conditions: Class B; nitrocefin substrate, 486 nm; read-out: VIM-2
T4 construct: made in house; host or cells: E. coli BL21(DE3)
Outline: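 Nitrocefin hydrolysis, read at 486 nm over 10 min, served as the measure of VIM-2 activity. The enzyme had been incubated with compound for 15 min at 37 °C before 100 μM substrate was added, and IC50 values were fitted from percent inhibition of the initial rate.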

[6] = test system: E. coli expressing the Class A Extended Spectrum Beta-Lactamase (ESBL) CTX-M-15; assay: Broth microdilution MIC assay with ceftazidime, E. coli CTX-M-15; type: cell-based; conditions: Fixed CAZ (ceftazidime) 4 μg/mL; E. coli ESBL4 CTX-M-15
Outline: as §1

Row | Structure (SMILES) | MIC (μg/mL) of Exemplary Compounds in presence of fixed β-lactams: P. aerug. 2775 VIM-2 [1] | IC50 (SHV-5) | IC50 (AmpC) | MIC (μg/mL) of Exemplary Compounds in presence of fixed β-lactams: K. p. A-1797 KPC-2 VIM-4 [2] | IC50 (OXA-48) | MIC (μg/mL) of Exemplary Compounds in presence of fixed β-lactams: E. cl. 144200 p99 AmpC [3] | IC50 (KPC-2) | MIC (μg/mL) of Exemplary Compounds in presence of fixed β-lactams: K. p. 156319 KPC-3 [4] | MIC (μg/mL) of Exemplary Compounds in presence of fixed β-lactams: K. p. 11978 OXA-48 [5] | IC50 (VIM-2) | MIC (μg/mL) of Exemplary Compounds in presence of fixed β-lactams: E. coli ESBL4 CTX-M-15 [6]
1 | NCc1cn(C[C@H](N)C(=O)N[C@H]2Cc3cccc(C(=O)O)c3OB2O)nn1 [Example 114, (R)-3-((S)-2-amino-3-(4-(aminomethyl)-1H-1,2,3-triazol-1-yl)propanamido)-2-hydroxy-3,4-dihydro-2H-benzo[e][1,2]oxaborinine-8-carboxylic acid] | C (C represents an MIC of <1 μg/mL) | 10000 to 100000 nM | < 100 nM | B (B represents an MIC between 1 and 16 μg/mL inclusive) | 1000 to 10000 nM | C (C represents an MIC of <1 μg/mL) | 100 to 1000 nM | C (C represents an MIC of <1 μg/mL) | B (B represents an MIC between 1 and 16 μg/mL inclusive) | 1000 to 10000 nM | C (C represents an MIC of <1 μg/mL)
2 | CC(C)(C(=O)N[C@H]1Cc2cccc(C(=O)O)c2OB1O)n1cc(CN)nn1 [Example 33, (R)-3-(2-(4-(aminomethyl)-1H-1,2,3-triazol-1-yl)-2-methylpropanamido)-2-hydroxy-3,4-dihydro-2H-benzo[e][1,2]oxaborinine-8-carboxylic acid] | C (C represents an MIC of <1 μg/mL) | < 100 nM | < 100 nM | C (C represents an MIC of <1 μg/mL) | < 100 nM | C (C represents an MIC of <1 μg/mL) | < 100 nM | B (B represents an MIC between 1 and 16 μg/mL inclusive) | B (B represents an MIC between 1 and 16 μg/mL inclusive) | < 100 nM | C (C represents an MIC of <1 μg/mL)
3 | NCCSCc1cn(CC(=O)N[C@H]2Cc3cccc(C(=O)O)c3OB2O)nn1 [Example 63, (R)-3-(2-(4-(((2-aminoethyl)thio)methyl)-1H-1,2,3-triazol-1-yl)acetamido)-2-hydroxy-3,4-dihydro-2H-benzo[e][1,2]oxaborinine-8-carboxylic acid] | C (C represents an MIC of <1 μg/mL) | < 100 nM | < 100 nM | B (B represents an MIC between 1 and 16 μg/mL inclusive) | 100 to 1000 nM | C (C represents an MIC of <1 μg/mL) | < 100 nM | C (C represents an MIC of <1 μg/mL) | B (B represents an MIC between 1 and 16 μg/mL inclusive) | 100 to 1000 nM | C (C represents an MIC of <1 μg/mL)
4 | CN(C)Cc1nnn(CC(=O)N[C@H]2Cc3cccc(C(=O)O)c3OB2O)c1CN(C)C [Example 38, (R)-3-(2-(4,5-bis((dimethylamino)methyl)-1H-1,2,3-triazol-1-yl)acetamido)-2-hydroxy-3,4-dihydro-2H-benzo[e][1,2]oxaborinine-8-carboxylic acid] | B (B represents an MIC between 1 and 16 μg/mL inclusive) | 100 to 1000 nM | < 100 nM | B (B represents an MIC between 1 and 16 μg/mL inclusive) | 100 to 1000 nM | C (C represents an MIC of <1 μg/mL) | < 100 nM | B (B represents an MIC between 1 and 16 μg/mL inclusive) | B (B represents an MIC between 1 and 16 μg/mL inclusive) | 100 to 1000 nM | B (B represents an MIC between 1 and 16 μg/mL inclusive)
5 | CNCCNC(=O)c1cn(CC(=O)N[C@H]2Cc3cccc(C(=O)O)c3OB2O)nn1 [Example 87, (R)-2-hydroxy-3-(2-(4-((2-(methylamino)ethyl)carbamoyl)-1H-1,2,3-triazol-1-yl)acetamido)-3,4-dihydro-2H-benzo[e][1,2]oxaborinine-8-carboxylic acid] | C (C represents an MIC of <1 μg/mL) | 100 to 1000 nM | < 100 nM | C (C represents an MIC of <1 μg/mL) | 1000 to 10000 nM | C (C represents an MIC of <1 μg/mL) | < 100 nM | C (C represents an MIC of <1 μg/mL) | B (B represents an MIC between 1 and 16 μg/mL inclusive) | < 100 nM | C (C represents an MIC of <1 μg/mL)
6 | O=C(Cc1nnn(C2CNC2)n1)N[C@H]1Cc2cccc(C(=O)O)c2OB1O [Example 100, (R)-3-(2-(2-(azetidin-3-yl)-2H-tetrazol-5-yl)acetamido)-2-hydroxy-3,4-dihydro-2H-benzo[e][1,2]oxaborinine-8-carboxylic acid] | C (C represents an MIC of <1 μg/mL) | < 100 nM | < 100 nM | B (B represents an MIC between 1 and 16 μg/mL inclusive) | < 100 nM | C (C represents an MIC of <1 μg/mL) | 100 to 1000 nM | C (C represents an MIC of <1 μg/mL) | C (C represents an MIC of <1 μg/mL) | < 100 nM | C (C represents an MIC of <1 μg/mL)
7 | CC(C)(CN)CNC(=O)c1cn(CC(=O)N[C@H]2Cc3cccc(C(=O)O)c3OB2O)nn1 [Example 86, (R)-3-(2-(4-((3-amino-2,2-dimethylpropyl)carbamoyl)-1H-1,2,3-triazol-1-yl)acetamido)-2-hydroxy-3,4-dihydro-2H-benzo[e][1,2]oxaborinine-8-carboxylic acid] | C (C represents an MIC of <1 μg/mL) | 100 to 1000 nM | 100 to 1000 nM | C (C represents an MIC of <1 μg/mL) | 1000 to 10000 nM | C (C represents an MIC of <1 μg/mL) | < 100 nM | C (C represents an MIC of <1 μg/mL) | B (B represents an MIC between 1 and 16 μg/mL inclusive) | < 100 nM | C (C represents an MIC of <1 μg/mL)
8 | Nc1ccc(S(=O)(=O)NCc2cn(CC(=O)N[C@H]3Cc4cccc(C(=O)O)c4OB3O)nn2)cc1 [Example 70, (R)-3-(2-(4-(((4-aminophenyl)sulfonamido)methyl)-1H-1,2,3-triazol-1-yl)acetamido)-2-hydroxy-3,4-dihydro-2H-benzo[e][1,2]oxaborinine-8-carboxylic acid] | B (B represents an MIC between 1 and 16 μg/mL inclusive) | < 100 nM | < 100 nM | B (B represents an MIC between 1 and 16 μg/mL inclusive) | 100 to 1000 nM | C (C represents an MIC of <1 μg/mL) | < 100 nM | B (B represents an MIC between 1 and 16 μg/mL inclusive) | B (B represents an MIC between 1 and 16 μg/mL inclusive) | 1000 to 10000 nM | C (C represents an MIC of <1 μg/mL)
